The nature of data set [1]: Pharmacokinetic study after IP administration. Conditions: for half-life: ip. In kind it is in vivo, female BALB/c mice. Here is the method:
Pharmacokinetics of GRMS-55 was evaluated in female BALB/c mice following intraperitoneal (IP) administration of this compound at doses of 50 and 100 mg·kg^−1. The investigated compound was dissolved in a vehicle composed of DMSO, PEG 400, and water for injection at a ratio of 25:25:50 (v/v/v). Animals were exsanguinated at 5, 15, 30, 60, 90, and 120 min following GRMS-55 administration. Blood samples were collected, allowed to clot for 30 min at room temperature, and centrifuged at 3000× g for 10 min. The serum was separated and stored at −20 °C until analysis.
To analyze GRMS-55 concentrations in the mouse serum, we used the previously developed HPLC method with UV detection. A detailed description of this method was published in a supplementary material of our previous publication. Briefly, 10 μL of 4-(8-((furan-2-ylmethyl)amino)-1,3-dimethyl-2,6-dioxo-1,2,3,6-tetrahydro-7H-purin-7-yl)-N′-(2-hydroxybenzylidene)butanehydrazide solution as internal standard (IS) was added to tubes containing 100 μL of the analyzed serum. The samples were mixed with 20 μL of 1 M hydrochloric acid solution, subjected to extraction with 1 mL of dichloromethane, and centrifuged at 10,000× g for 8 min. The organic layers were transferred to new tubes and evaporated with nitrogen at 37 °C. Dry residues were then dissolved in 100 μL of mobile phase and transferred to glass vial inserts for HPLC analysis (LaChrom Elite, Merck-Hitachi, Darmstadt, Germany). The separation was achieved on a LiChrospher 100 RP-18 (250 × 4 mm) column (particle size of 5 μm) protected with a LiChroCART guard column (Merck, Darmstadt, Germany) using the mobile phase composed of 20 mM solution of KH2PO4 (pH = 4.5) and acetonitrile at a ratio of 45:55 (v/v) pumped at a flow rate of 1 mL min^−1 at ambient temperature. The analytical wavelength was set to 209 nm. In these conditions, the retention time of GRMS-55 was 9.2 min and for IS it was 5.3 min. The analytical method was validated according to FDA Bioanalytical Method Validation, Guidance for Industry. Specificity of the method was estimated by analyzing six different independent samples of the blank serum. […] The calibration curve was constructed by plotting the ratios of the peak area of the studied compound to IS vs. concentrations of GRMS-55 and it was linear in the tested concentration range, i.e., 0.050–20 mg·L^−1. Within runs and between runs, precision and accuracy met the acceptance criteria, i.e., they were less than 15% expressed as coefficients of variation % (CVs%) or ±15% of the nominal concentrations, respectively, for all quality control levels. Recoveries of the analyzed compound and IS assessed by comparing the peak areas of extracted samples with corresponding extracts of blanks spiked with the analyte post-extraction ranged from 94% to 98%. The lower limit of quantification was 0.05 mg·L^−1. GRMS-55 in serum samples was stable at room temperature for at least 12 h and at –20 °C for a period of 12 months. The stock solutions were stable for over one month at 4 °C.
Initially, non-compartmental analysis of the concentration–time data of GRMS-55 was performed. Subsequently, pharmacokinetic modeling was conducted. Different compartmental models with linear and non-linear elimination were tested, and the final pharmacokinetic model with the best goodness-of-fit criteria was chosen. Several measures of goodness-of-fit were evaluated, i.e., value of the objective function, Akaike Information Criterion, Bayesian Information Criterion, visual inspection of fitting, and a precision of parameter estimates expressed as CVs%. Pharmacokinetic model parameters were estimated using the ADAPT 5 software (BMSR, Los Angeles, CA, USA) based on the weighted least squares algorithm. […]

A further data set deals with PDE4B. The experiment in a line: in vitro PDE4B inhibition assay. In kind it is biochemical. Conditions: ratio of IC50 values.

Where two headings read alike, the source gives them in different places.

Take `Cn1c(=O)c2c(nc(NCCc3ccccc3)n2CCCC(=O)NN=Cc2ccccc2O)n(C)c1=O` [GRMS-55, 4-(1,3-dimethyl-2,6-dioxo-8-(phenethylamino)-1,2,3,6-tetrahydro-7H-purin-7-yl)-N′-(2-hydroxybenzylidene)butanehydrazide]: the “ka, absorption rate constant” value in data set [1] (IP 50 or 100 mg/kg, one-compartment model) turned out to be 1.49 h⁻¹. For the same compound, the half-life in data set [1] (female, BALB/c, mouse, serum, mice, IP, read-out: terminal half-life) is about 30 min; in data set [1] (female, BALB/c, mouse, serum, non-compartmental approach, IP, read-out: serum terminal half-life (converted)), about 30 min; in data set [1] (female, BALB/c, mouse, serum, read-out: absorption half-life (ln2/ka)), 27.9 min; in data set [1] (female, BALB/c, mouse, serum, read-out: elimination half-life (ln2/ke)), 9.1 min. In addition, the Vd/F in data set [1] (female, BALB/c, mouse, serum, IP 50 or 100 mg/kg, one-compartment model, read-out: Vd/F, apparent volume of distribution) was 1.81 L/kg. The k el in data set [1] (female, BALB/c, mouse, serum, IP 50 or 100 mg/kg, one-compartment model, read-out: ke, elimination rate constant (converted)) is 0.00127 s⁻¹. In addition, the “times weaker inhibitor of PDE4B than rolipram” value in the data set with PDE4B was 24.5.
